In ChEMBL document CHEMBL1759853, “Imidazo[1,5-a]pyrazines: orally efficacious inhibitors of mTORC1 and mTORC2” (Bioorg Med Chem Lett, 2011):
One block for each compound: values may come before it. Activity calls are given as the source filed them. The calls are words filed in the database; no cut-off is given here.

What was measured:
cells = conditions: Homo sapiens, HeLa
[1] = Metabolic stability in mouse liver microsome assessed as extraction ratio; format: ADME; conditions: liver microsomes
in vitro = conditions: human, liver microsomes
Description: Metabolic stability in human liver microsome assessed as extraction ratio

[2] = target: Proto-oncogene tyrosine-protein kinase Src (Homo sapiens, UniProt P12931); assay: Inhibition of Src
[3] = Inhibition of mTORC2 dependent pAkT S473 phosphorylation in human BT-20 cells; format: cell-based
[4] = Clearance in mouse at 1 mg/kg, iv; format: ADME, organism-based; design: dose 1 mg/kg, route intravenous; conditions: in vivo
[5] = target: T1, 3-phosphoinositide-dependent protein kinase 1 (Homo sapiens, UniProt O15530); assay: Inhibition of PDK1
T1 sequence (O15530 whole entry): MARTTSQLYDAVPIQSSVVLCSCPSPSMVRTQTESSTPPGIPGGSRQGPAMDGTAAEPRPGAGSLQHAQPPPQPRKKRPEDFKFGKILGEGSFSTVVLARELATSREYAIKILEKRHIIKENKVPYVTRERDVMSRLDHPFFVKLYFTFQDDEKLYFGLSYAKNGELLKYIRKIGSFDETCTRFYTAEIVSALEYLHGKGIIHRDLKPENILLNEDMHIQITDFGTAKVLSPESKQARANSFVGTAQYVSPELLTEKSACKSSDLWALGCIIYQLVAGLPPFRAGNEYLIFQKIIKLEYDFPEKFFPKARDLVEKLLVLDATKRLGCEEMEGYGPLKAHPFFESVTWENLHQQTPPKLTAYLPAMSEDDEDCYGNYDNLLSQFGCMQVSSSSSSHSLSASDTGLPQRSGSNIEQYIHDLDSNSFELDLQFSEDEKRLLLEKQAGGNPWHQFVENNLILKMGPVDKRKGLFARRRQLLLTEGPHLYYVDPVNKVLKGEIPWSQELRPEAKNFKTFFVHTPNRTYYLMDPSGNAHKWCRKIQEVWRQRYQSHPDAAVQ

[6] = target: Dual specificity mitogen-activated protein kinase kinase 1 (Homo sapiens, UniProt Q02750); assay: Inhibition of MEK1
[7] = target: Tyrosine-protein kinase ABL1 (Homo sapiens, UniProt P00519); assay: Inhibition of Abl
[8] = target: T2, Insulin-like growth factor 1 receptor (Homo sapiens, UniProt P08069); assay: Inhibition of IGF-1R
[9] = Plasma protein binding in mouse; format: ADME, cell-free; conditions: read-out: PPB (converted)
[10] = AUC (0 to infinity) in mouse at 20 mg/kg, po; format: ADME, organism-based; design: time infinity, dose 20 mg/kg, route oral; conditions: plasma
[11] = target: RAF proto-oncogene serine/threonine-protein kinase (Homo sapiens, UniProt P04049); assay: Inhibition of cRaf
[12] = target: Phosphatidylinositol 4,5-bisphosphate 3-kinase catalytic subunit gamma isoform (Homo sapiens, UniProt P48736); assay: Inhibition of PI3Kgamma
[13] = AUC (0 to infinity) in mouse at 1 mg/kg, iv; format: ADME, organism-based; design: time infinity, dose 1 mg/kg, route intravenous; conditions: plasma
[14] = Half life in mouse at 1 mg/kg, iv; format: ADME, organism-based; design: dose 1 mg/kg, route intravenous; conditions: in vivo
Insulin receptor = Insulin receptor (Homo sapiens, UniProt P06213); assay: Inhibition of IR
[15] = Volume of distribution at steady-state in mouse at 1 mg/kg, iv; format: ADME, organism-based; design: dose 1 mg/kg, route intravenous; conditions: in vivo, read-out: Vdss
Mus musculus [16] = assay: […] mouse bearing human MDA-MB-231 cells assessed as inhibition of 4E-BP1 T37/46 phosphorylation at 100 mg/kg, po after 8 hrs; format: functional, organism-based; design: dose 100 mg/kg
[17] = Aqueous solubility of the compound at pH 7.4; format: physicochemical
Mus musculus [18] = assay: […] mouse bearing human MDA-MB-231 cells assessed as inhibition of 4E-BP1 T37/46 phosphorylation at 100 mg/kg, po after 4 hrs; format: functional, organism-based; design: dose 100 mg/kg
[19] = Bioavailability in mouse at 20 mg/kg, po; format: ADME, organism-based; conditions: in vivo
MDA-MB-231 = assay: Antiproliferative activity against human MDA-MB-231 cells; format: functional, cell-based
[20] = Cmax in mouse at 20 mg/kg, po; format: ADME, organism-based; design: dose 20 mg/kg, route oral; conditions: in vivo
[21] = Inhibition of mTORC2 dependent P4E-BP1 T37/46 phosphorylation in human MDA-MB-231 cells; format: cell-based
[22] = Permeability of the compound by PAMPA method; format: ADME; conditions: read-out: permeability
[23] = target: T2, Insulin-like growth factor 1 receptor; assay: Inhibition of IGF-1R by ELISA

T2 sequence (P08069 31-736 limits assumed): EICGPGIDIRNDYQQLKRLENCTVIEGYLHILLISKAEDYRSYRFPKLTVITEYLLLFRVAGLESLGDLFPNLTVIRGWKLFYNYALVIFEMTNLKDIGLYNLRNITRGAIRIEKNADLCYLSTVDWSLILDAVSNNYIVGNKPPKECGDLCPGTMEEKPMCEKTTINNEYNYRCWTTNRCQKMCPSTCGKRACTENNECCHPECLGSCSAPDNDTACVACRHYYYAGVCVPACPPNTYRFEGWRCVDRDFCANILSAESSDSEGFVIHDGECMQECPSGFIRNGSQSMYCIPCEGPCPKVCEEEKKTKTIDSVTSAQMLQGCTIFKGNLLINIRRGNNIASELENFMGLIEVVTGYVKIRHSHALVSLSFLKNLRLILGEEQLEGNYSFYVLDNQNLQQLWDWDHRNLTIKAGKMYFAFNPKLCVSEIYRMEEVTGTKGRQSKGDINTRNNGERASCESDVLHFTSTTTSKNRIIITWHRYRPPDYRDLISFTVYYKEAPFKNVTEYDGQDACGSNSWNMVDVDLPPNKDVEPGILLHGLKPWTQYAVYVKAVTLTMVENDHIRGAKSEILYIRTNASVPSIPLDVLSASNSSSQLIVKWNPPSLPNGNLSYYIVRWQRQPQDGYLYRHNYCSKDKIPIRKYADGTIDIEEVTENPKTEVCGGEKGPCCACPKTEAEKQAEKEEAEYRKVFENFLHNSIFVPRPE
T2 sequence (P08069 741-1367 limits assumed): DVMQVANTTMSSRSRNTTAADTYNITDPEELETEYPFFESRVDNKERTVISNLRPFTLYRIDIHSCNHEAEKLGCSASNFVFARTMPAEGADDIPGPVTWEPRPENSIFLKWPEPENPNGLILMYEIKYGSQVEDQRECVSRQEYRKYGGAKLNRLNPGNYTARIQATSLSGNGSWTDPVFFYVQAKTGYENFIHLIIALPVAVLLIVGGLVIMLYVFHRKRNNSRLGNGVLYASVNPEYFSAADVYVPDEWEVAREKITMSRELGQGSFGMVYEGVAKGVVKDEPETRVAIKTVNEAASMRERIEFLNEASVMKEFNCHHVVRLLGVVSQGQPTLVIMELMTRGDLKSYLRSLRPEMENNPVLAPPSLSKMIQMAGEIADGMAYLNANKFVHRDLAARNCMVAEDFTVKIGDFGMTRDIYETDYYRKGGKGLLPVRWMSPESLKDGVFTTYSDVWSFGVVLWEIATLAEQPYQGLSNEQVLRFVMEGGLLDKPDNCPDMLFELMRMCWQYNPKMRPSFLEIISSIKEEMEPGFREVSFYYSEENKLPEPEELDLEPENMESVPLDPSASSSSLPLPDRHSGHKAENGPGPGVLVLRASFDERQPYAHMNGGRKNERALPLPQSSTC
Sequence of Dual specificity mitogen-activated protein kinase kinase 1 (Q02750 whole entry): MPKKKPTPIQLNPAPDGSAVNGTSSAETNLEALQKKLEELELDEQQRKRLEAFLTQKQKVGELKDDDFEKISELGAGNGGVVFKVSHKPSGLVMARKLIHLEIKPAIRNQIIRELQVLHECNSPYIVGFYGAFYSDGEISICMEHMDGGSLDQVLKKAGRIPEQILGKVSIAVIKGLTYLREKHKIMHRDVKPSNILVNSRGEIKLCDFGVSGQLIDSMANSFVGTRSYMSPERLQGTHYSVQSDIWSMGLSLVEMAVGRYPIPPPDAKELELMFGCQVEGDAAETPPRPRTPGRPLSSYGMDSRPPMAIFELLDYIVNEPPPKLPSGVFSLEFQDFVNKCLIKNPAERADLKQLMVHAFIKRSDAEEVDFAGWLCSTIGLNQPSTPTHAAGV
Sequence of Tyrosine-protein kinase ABL1 (P00519 whole entry): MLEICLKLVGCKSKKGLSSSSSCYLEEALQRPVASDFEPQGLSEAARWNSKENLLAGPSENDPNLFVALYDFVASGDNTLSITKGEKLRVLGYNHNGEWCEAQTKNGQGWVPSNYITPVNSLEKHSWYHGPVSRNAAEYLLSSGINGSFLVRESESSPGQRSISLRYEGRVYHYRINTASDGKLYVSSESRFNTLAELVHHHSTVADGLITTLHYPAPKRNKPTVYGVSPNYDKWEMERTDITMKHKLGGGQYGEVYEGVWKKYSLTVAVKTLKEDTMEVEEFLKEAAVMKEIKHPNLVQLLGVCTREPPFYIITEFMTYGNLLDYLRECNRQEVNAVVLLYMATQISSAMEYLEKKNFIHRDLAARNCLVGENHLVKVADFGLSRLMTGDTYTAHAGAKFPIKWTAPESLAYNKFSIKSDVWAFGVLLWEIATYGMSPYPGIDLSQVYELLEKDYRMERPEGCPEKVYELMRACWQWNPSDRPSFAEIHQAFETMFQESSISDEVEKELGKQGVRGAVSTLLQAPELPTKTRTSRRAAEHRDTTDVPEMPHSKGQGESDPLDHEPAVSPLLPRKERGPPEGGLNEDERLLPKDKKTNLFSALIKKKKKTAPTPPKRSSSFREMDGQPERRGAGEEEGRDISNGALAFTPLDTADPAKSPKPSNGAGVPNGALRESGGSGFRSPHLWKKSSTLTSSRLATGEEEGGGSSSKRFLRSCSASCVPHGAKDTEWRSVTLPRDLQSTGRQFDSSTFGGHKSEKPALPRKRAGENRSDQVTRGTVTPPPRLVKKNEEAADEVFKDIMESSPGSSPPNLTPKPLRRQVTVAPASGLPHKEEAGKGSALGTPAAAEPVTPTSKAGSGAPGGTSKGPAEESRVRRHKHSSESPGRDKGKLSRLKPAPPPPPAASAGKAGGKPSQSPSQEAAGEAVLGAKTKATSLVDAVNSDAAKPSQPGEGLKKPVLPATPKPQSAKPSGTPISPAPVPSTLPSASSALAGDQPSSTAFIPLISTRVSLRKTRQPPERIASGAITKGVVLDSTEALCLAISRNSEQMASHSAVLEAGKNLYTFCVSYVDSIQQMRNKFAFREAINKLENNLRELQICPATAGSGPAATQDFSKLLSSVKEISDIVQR
Sequence of Phosphatidylinositol 4,5-bisphosphate 3-kinase catalytic subunit gamma isoform (P48736 whole entry, canonical isoform): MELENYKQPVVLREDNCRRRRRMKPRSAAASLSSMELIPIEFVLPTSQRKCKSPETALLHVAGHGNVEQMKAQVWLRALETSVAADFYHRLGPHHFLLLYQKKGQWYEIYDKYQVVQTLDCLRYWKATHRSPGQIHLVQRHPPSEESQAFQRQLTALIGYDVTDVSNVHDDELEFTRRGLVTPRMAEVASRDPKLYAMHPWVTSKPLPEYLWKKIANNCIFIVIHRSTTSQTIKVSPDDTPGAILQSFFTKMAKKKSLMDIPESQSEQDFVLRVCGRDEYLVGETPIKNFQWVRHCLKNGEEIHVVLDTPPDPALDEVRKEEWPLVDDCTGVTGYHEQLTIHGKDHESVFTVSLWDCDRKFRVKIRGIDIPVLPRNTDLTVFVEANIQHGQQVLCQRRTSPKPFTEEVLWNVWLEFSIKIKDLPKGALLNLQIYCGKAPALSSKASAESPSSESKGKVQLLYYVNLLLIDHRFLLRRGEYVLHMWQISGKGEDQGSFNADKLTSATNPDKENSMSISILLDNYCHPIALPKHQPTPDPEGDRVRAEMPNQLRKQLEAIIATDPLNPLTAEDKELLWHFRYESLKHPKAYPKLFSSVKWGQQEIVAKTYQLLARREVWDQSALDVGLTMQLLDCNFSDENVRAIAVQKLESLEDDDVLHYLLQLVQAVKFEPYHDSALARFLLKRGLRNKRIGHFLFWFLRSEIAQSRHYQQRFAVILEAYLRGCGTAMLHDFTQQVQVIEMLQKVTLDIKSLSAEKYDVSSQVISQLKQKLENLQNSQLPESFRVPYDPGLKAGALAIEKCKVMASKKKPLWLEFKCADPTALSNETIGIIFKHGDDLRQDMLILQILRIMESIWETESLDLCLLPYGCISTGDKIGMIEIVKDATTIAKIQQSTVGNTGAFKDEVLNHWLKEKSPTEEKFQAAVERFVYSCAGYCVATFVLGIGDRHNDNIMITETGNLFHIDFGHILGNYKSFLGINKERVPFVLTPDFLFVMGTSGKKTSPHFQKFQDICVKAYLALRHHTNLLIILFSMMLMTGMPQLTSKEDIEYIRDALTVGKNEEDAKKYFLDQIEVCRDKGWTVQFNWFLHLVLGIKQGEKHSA
Sequence of RAF proto-oncogene serine/threonine-protein kinase (P04049 whole entry, canonical isoform): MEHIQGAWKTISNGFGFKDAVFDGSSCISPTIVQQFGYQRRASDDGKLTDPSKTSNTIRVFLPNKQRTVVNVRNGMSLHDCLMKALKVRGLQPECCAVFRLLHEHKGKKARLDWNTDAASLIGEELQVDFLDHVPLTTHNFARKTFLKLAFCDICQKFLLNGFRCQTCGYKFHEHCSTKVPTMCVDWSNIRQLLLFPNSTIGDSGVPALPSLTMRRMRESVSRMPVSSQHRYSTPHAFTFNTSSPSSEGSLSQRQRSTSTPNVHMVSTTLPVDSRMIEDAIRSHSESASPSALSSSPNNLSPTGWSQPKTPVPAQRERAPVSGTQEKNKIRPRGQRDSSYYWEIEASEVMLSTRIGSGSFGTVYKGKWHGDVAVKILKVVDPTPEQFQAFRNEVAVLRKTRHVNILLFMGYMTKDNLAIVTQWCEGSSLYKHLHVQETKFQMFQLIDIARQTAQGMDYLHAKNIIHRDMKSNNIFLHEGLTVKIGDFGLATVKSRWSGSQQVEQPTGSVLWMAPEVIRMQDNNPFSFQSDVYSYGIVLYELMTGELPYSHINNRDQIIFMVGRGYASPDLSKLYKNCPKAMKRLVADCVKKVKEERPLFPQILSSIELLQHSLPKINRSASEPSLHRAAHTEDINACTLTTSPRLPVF

SMILES: Nc1nccn2c(C3CCC3)nc(-c3ccc4ccc(-c5ccccc5)nc4c3)c12
IC50 (cells): > 9000 nM

SMILES: Nc1nccn2c(C3CCC3)nc(-c3cc4ccccc4s3)c12
IC50 (cells): 130 nM

SMILES: CC(=O)N1CCC(c2nc(-c3cc4ccccc4[nH]3)c3c(N)nccn23)CC1
hepatic extraction ratio [1]: 0.43
IC50 (cells): 690 nM
hepatic extraction ratio (in vitro): 0.44

SMILES: CN1CCN(C(=O)N2CCC(c3nc(-c4cc5ccccc5[nH]4)c4c(N)nccn34)CC2)CC1
IC50 (cells): 1370 nM

SMILES: CN1CCN([C@H]2C[C@@H](c3nc(-c4cc5ccccc5[nH]4)c4c(N)nccn43)C2)CC1
hepatic extraction ratio [1]: 0.2
IC50 (cells): 4000 nM
hepatic extraction ratio (in vitro): 0.44

SMILES: CC(=O)NC[C@H]1CC[C@H](c2nc(-c3cc4ccccc4[nH]3)c3c(N)nccn32)CC1
IC50 [2]: 5300 nM
IC50 [3]: 1260 nM
clearance [4]: 2 mL/min/kg
IC50 [5]: 11200 nM
IC50 [6]: 960 nM
IC50 [7]: 1960 nM
IC50 [8]: 2720 nM
IC50 (cells): 210 nM
fraction unbound [9]: 0.097
AUC(0-inf) [10]: 73800 ng·h/mL
IC50 [11]: 180 nM
IC50 [12]: > 30000 nM
AUC(0-inf) [13]: 6880 ng·h/mL
half-life [14]: 1.6 h
IC50 (Insulin receptor): 22600 nM
Vd [15]: 0.2 L/kg
Activity (Mus musculus [16]): Active
solubility [17]: > 100 µM
Activity (Mus musculus [18]): Active
bioavailability [19]: 54%
IC50 (MDA-MB-231): 7400 nM
Cmax [20]: 30.6 µM
IC50 [21]: 7400 nM
Papp [22]: > 25 ×10⁻⁶ cm/s

SMILES: Nc1nccn2c1c(-c1cc3ccccc3[nH]1)nc2[C@H]1CC[C@H](CNC(=O)C2CCC2)CC1
hepatic extraction ratio [1]: 0.79
IC50 (cells): 170 nM
hepatic extraction ratio (in vitro): 0.74

SMILES: Nc1nccn2c(C3CCC3)nc(-c3c[nH]c4ccccc34)c12
IC50 (cells): > 10000 nM

SMILES: Nc1nccn2c(C3CCC3)nc(-c3cccc4ccccc34)c12
IC50 (cells): > 10000 nM

Further lines, results first:

IC50 (cells): 7150 nM
SMILES: Nc1nccn2c(C3CCC3)nc(-c3ccc4ncccc4c3)c12

IC50 (cells): 1300 nM
SMILES: Nc1nccn2c(C3CCC3)nc(-c3ccc4sccc4c3)c12

IC50 (cells): 2350 nM
SMILES: Nc1nccn2c(C3CCC3)nc(-c3cnc4ccccc4c3)c12

hepatic extraction ratio [1]: 0.94
IC50 (cells): 460 nM
hepatic extraction ratio (in vitro): 0.92
SMILES: Nc1nccn2c(C3CCC3)nc(-c3cc4ccccc4[nH]3)c12

IC50 (cells): > 10000 nM
SMILES: Nc1nccn2c(C3CCC3)nc(-c3ccc4occc4c3)c12

IC50 [23]: > 10000 nM
IC50 (cells): 900 nM
SMILES: Nc1nccn2c(C3CCC3)nc(-c3ccc4cccnc4c3)c12

IC50 (cells): 1970 nM
SMILES: Nc1nccn2c(C3CCC3)nc(-c3cccc(O)c3)c12

IC50 (cells): 2480 nM
SMILES: Nc1nccn2c(C3CCC3)nc(-c3ccc4[nH]ccc4c3)c12
